# Literature values as cited in publication PMC8865417, “Receptor Interaction Profiles of 4-Alkoxy-3,5-Dimethoxy-Phenethylamines (Mescaline Derivatives) and Related Amphetamines” (Frontiers in Pharmacology, 2022).
# Columns and labels:
# Design in all cases: method as in Simmler et al. (2013)
# [1] = molecular target: T1, rat TAAR1 (Rattus norvegicus, UniProt Q923Y9); details: reference substance; ref Simmler et al. (2013); read-out: rTAAR1 Ki; cited from earlier work
# T1 construct: expressed in transfected cells; host or cells: HEK 293 cells (membrane preparations)
# T1 sequence (Q923Y9 whole entry): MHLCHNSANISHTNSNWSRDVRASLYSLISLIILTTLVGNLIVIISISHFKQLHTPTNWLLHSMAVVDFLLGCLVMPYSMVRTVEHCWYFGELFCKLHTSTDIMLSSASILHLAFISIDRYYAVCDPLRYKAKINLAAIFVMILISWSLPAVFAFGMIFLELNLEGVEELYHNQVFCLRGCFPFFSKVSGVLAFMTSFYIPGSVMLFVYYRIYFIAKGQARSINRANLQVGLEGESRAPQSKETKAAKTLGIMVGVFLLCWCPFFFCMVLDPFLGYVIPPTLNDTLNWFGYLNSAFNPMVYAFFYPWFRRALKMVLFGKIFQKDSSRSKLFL
# [2] = molecular target: T2, mouse TAAR1 (Mus musculus, UniProt Q923Y8); details: reference substance; ref Simmler et al. (2013); read-out: mTAAR1 Ki; cited from earlier work
# T2 construct: expressed in transfected cells; host or cells: HEK 293 cells (membrane preparations)
# T2 sequence (Q923Y8 whole entry): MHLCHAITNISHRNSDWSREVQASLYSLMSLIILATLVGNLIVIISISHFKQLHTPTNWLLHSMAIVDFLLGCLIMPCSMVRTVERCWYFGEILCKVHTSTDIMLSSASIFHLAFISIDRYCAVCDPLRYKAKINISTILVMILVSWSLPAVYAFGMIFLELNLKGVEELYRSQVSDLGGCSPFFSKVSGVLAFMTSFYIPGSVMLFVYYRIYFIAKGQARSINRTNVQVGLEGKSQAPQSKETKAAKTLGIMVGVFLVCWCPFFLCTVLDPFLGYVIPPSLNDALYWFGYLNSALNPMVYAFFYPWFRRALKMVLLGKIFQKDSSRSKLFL
# [3] = molecular target: T3, hα1A adrenergic receptor (Homo sapiens, UniProt P35348); details: reference substance; ref Simmler et al. (2013); cited from earlier work
# T3 construct: expressed in transfected cells; host or cells: Chinese hamster ovary cells (membrane preparations)
# T3 sequence (P35348 1-466): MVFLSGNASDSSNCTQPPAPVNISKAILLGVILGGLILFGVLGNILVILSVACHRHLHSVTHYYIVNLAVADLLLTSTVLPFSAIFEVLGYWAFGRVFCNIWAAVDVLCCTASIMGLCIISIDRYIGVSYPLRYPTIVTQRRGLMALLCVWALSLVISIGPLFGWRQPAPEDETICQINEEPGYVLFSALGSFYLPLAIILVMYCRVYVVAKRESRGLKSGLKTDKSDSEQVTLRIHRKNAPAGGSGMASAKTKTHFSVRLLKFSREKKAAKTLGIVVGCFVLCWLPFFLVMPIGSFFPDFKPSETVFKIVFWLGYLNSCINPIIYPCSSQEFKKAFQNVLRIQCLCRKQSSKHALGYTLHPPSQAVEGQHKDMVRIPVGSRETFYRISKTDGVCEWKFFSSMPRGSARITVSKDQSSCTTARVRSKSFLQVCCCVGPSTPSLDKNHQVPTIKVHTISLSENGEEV
# [4] = molecular target: T4, hα2A adrenergic receptor (Homo sapiens, UniProt P08913); details: reference substance; ref Simmler et al. (2013); cited from earlier work
# T4 construct: expressed in transfected cells; host or cells: Chinese hamster lung cells (membrane preparations)
# T4 sequence (P08913 1-465): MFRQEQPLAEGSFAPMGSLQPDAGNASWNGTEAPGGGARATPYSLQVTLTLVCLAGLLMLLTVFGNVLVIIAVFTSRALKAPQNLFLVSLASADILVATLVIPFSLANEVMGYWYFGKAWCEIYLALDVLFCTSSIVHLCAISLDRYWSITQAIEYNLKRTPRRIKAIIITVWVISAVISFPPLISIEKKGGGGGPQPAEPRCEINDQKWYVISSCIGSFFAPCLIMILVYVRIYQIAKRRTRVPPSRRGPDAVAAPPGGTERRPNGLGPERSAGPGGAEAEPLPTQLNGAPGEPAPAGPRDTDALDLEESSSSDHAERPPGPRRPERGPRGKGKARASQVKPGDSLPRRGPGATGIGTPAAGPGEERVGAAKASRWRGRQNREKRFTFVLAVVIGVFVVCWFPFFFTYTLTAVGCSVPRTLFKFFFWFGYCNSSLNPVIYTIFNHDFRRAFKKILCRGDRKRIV
# [5] = molecular target: T5, dopaminergic hD2 receptor (Homo sapiens, UniProt P14416); details: reference substance; ref Simmler et al. (2013); cited from earlier work
# T5 construct: expressed in transfected cells; host or cells: HEK 293 cells (membrane preparations)
# T5 sequence (P14416 whole entry): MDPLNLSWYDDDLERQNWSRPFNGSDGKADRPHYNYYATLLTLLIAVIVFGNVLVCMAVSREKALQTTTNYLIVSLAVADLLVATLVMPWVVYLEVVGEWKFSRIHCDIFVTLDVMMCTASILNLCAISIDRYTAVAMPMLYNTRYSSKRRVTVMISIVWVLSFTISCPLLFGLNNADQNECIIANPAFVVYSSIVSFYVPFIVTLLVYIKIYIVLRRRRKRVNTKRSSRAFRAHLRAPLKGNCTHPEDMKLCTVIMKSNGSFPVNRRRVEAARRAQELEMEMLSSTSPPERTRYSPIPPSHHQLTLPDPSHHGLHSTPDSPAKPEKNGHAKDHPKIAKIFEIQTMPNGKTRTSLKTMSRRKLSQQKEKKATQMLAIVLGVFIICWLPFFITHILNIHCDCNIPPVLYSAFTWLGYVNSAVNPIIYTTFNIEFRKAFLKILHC
# [6] = molecular target: T6, hNET (Homo sapiens, UniProt P23975); details: reference substance; ref Simmler et al. (2013); cited from earlier work
# T6 construct: expressed in transfected cells; host or cells: HEK 293 cells (membrane preparations)
# T6 sequence (P23975 whole entry): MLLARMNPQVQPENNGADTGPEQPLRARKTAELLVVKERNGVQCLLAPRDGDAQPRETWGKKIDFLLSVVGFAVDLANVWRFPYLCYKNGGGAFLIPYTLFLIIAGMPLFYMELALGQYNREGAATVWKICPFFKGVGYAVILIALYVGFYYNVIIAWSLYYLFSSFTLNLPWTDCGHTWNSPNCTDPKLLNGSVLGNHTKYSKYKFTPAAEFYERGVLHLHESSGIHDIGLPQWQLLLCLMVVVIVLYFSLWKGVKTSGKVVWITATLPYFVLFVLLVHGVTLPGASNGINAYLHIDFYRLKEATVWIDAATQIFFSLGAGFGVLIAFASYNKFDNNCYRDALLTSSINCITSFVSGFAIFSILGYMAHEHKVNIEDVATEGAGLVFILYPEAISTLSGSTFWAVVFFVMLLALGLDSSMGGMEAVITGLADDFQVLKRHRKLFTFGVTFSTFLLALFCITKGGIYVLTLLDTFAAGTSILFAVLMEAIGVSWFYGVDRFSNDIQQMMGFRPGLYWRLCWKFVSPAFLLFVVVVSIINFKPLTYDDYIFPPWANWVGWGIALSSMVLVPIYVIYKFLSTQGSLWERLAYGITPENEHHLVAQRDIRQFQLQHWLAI
# [7] = molecular target: T7, hDAT (Homo sapiens, UniProt Q01959); details: reference substance; ref Simmler et al. (2013); cited from earlier work
# T7 construct: expressed in transfected cells; host or cells: HEK 293 cells (membrane preparations)
# T7 sequence (Q01959 whole entry): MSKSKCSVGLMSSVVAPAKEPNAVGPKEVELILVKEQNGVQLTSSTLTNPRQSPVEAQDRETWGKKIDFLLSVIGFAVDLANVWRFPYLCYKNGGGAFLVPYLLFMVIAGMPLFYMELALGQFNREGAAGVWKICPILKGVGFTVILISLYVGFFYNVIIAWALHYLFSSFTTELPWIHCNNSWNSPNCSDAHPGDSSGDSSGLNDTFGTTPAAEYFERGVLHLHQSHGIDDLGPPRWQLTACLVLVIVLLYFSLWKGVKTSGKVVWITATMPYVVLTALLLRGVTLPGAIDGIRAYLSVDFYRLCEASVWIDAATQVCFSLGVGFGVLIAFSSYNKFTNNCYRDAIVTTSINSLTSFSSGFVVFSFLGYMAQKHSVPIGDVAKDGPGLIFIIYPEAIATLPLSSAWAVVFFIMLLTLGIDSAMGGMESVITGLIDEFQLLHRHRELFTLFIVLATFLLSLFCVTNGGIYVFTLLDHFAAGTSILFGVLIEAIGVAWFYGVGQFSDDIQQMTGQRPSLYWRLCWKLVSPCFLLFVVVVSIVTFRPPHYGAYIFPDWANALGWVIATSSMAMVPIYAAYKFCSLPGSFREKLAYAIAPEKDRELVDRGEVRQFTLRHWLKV
# [8] = molecular target: T8, hSERT (Homo sapiens, UniProt P31645); details: reference substance; ref Simmler et al. (2013); cited from earlier work
# T8 construct: expressed in transfected cells; host or cells: HEK 293 cells (membrane preparations)
# T8 sequence (P31645 whole entry): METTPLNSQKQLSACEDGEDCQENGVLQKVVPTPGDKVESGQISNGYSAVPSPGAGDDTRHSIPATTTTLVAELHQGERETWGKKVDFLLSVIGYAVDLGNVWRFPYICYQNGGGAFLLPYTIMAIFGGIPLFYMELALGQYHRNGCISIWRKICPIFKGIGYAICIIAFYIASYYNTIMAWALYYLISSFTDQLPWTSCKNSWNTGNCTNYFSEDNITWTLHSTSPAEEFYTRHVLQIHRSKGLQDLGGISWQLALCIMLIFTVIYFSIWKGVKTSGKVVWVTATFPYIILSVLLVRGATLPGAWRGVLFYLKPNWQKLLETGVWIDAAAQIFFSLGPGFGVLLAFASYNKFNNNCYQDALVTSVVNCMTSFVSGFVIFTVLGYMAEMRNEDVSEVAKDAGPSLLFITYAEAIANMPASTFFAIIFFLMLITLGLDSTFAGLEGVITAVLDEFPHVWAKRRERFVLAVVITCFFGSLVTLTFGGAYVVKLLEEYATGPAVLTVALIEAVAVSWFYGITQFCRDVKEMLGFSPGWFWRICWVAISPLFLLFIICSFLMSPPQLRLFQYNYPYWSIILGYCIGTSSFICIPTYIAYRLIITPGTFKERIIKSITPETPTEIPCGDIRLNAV
smiles,measurement,setting,value
CNC(C)Cc1ccc2c(c1)OCO2 (centres unmarked) [MDMA],Ki,[1],0.37 ± 0.12 µM
same,Ki,[2],2.4 µM
same,Ki,[3],> 8.7 µM
same,Ki,[4],> 5.1 µM
same,Ki,[5],> 6.3 µM
same,Ki,[6],> 9.7 µM
same,Ki,[7],> 8.5 µM
same,Ki,[8],> 7.5 µM
